Results reported in paper PMC10515483, “Structure–Reactivity Studies of 2-Sulfonylpyrimidines Allow Selective Protein Arylation” (Bioconjugate Chemistry, 2023).

Assay: GSH arylation rate constants (NMR; UV-vis for fast warheads)
Format: physicochemical
Design: key to rate constant (k) for the reaction with GSH / k: NR = no reaction
Details: for reactivity with GSH (in words): up to 6 h; for k: Table S8, rate constants obtained at pH = 7; for k change (vs ref): ratio to rate constant of 4q, acceleration (+) or deceleration (-)
Source text: We employed nuclear magnetic resonance (NMR) and UV–vis to quantify the reactivity of our 2-SP derivatives and other representative electrophiles (Figure 2) against cysteine. NMR allowed straightforward determination of reaction rate constants through dual monitoring of the consumption of the warhead and formation of the product by integration of their respective NMR signals (Figures S1–S3). It simultaneously provided a direct readout on reaction specificity and hydrolytic stability of the warhead. All measurements were carried out in KPi buffer in the presence of 5% d^6-dmso, which is generally well-tolerated by a wide range of proteins in in vitro studies. N-acetylcysteine methylester (NACME) and L-glutathione (GSH) are useful model cysteine nucleophiles for in vitro studies of electrophilic agents.[32] Mixing reference electrophile 2-methylsulfonylpyrimidine (4q) with NACME or GSH in a 1:10 ratio (pseudo-first-order conditions) allowed extraction of accurate and reproducible second order rate constants (k).
Figure 3 In vitro determination of electrophilic reactivity of compounds. (A) NMR assay setup for warhead/GSH reaction rate constant determination and chemoselectivity monitoring, over a 6 h time scale. Purple bead = GSH. Hydrolytic stability was determined in the same way over 36 h. d^4-Trimethylsilylpropanoate (TMSP, blue box) was used as an internal standard for monitoring the warhead solubility. Second-order reaction rate constants (k) were obtained from their pseudo-first-order counterparts (k′), by time-dependent normalized integration of the disappearing warhead signals. […] (B) Experimental second-order rate constants (y axis, log10 scale) for the reaction of representative 2-SP derivatives (left, 11 out of ca. 40 examples) and previously reported heteroarylsulfones (right) with GSH in a KPi buffer, pH 7.0, 20 °C. All rate constants were calculated as an average of at least two independent measurements. Numerical values and standard deviations at both pH 7.0 and 6.5, along with a full list of 2-SPs and other electrophile types tested, are presented in Tables S2–S6 and Figure S4. The horizontal dashed line marks the reaction rate of 2-methylsulfonylpyrimidine at pH 7.0, as a reference when comparing with other reagents (see main text).
To establish an accurate structure–reactivity profile of 2-SP reagents, we systematically determined their reaction rate constants for the arylation of GSH by NMR, at pH 7.0 and 6.5. This was a prerequisite to (i) quantify the influence of substitution on reaction rates; (ii) accurately assess the tunability and chemoselectivity of 2-SPs for cysteine arylation; (iii) determine the influence of pH on the reaction rates to further inform on the precise reaction mechanism; and (iv) benchmark the overall performance of 2-SPs with those of previously reported fast reacting heteroarylsulfones and other common cysteine reactive warheads (Figure 2C,D).

[1] = pH 6.5, by NMR, KPi buffer, 5% DMSO-d6
[2] = pH 7.0, by NMR, KPi buffer, 5% DMSO-d6

SMILES	rate constant (k) for the reaction with GSH [1]	rate constant (k) for the reaction with GSH [2]	also measured
Cc1cc(C)nc(Cl)n1 [1a]	NR	NR	
COc1ccnc(Cl)n1 [1b]	NR	NR	
Cc1ccnc(Cl)n1 [1c]	NR	NR	
O=C(O)c1ccnc(Cl)n1 [1d]	NR	NR	
Clc1nccc(-c2ccccc2)n1 [1e]	NR	NR	
COc1cc(OC)nc(Cl)n1 [1f]	NR	NR	
Nc1ccnc(Cl)n1 [1g]	NR	NR	
O=C(O)c1nc(Cl)ncc1Cl [1h]	NR	NR	
O=C(O)c1nc(Cl)ncc1Br [1i]	NR	NR	
NC(=O)c1ccnc(Cl)n1 [1j]	NR	NR	
COC(=O)c1ccnc(Cl)n1 [1k]	NR	NR	
FC(F)(F)c1ccnc(Cl)n1 [1l]	0.00045 M⁻¹ s⁻¹	0.001 ± 0.0005 M⁻¹ s⁻¹	
Nc1cnc(Cl)nc1 [1m]	NR	NR	
COc1cnc(Cl)nc1 [1n]	NR	NR	
Cc1cnc(Cl)nc1 [1o]	NR	NR	
Clc1ncc(-c2ccccc2)cn1 [1p]	NR	NR	
Clc1ncccn1 [1q]	NR	NR	reactivity with GSH (in words) (KPi buffer): failed to induce observable arylation of GSH; k: NR
Fc1cnc(Cl)nc1 [1r]	NR	NR	
Clc1cnc(Cl)nc1 [1s]	Ca. 0.07 mM-1.s-1	Ca. 0.26 mM-1.s-1	
Clc1ncc(Br)cn1 [1t]	Ca. 0.025 mM-1.s-1	Ca. 0.15 mM-1.s-1	

SMILES	rate constant (k) for the reaction with GSH [1]	rate constant (k) for the reaction with GSH [2]	also measured
O=C(O)c1cnc(Cl)nc1 [1v]	Ca. 0.14 mM-1.s-1	Ca. 0.65 mM-1.s-1	
O=[N+]([O-])c1cnc(Cl)nc1 [1w]	NR	NR	
COC(=O)c1cnc(Cl)nc1 [1y]	Ca. 11 mM-1.s-1	Ca. 55 mM-1.s-1	rate relative to 5-NO2-MSBT / nitro-MSBT (10) (in words) (in vitro): an order of magnitude
CSc1nc(C)cc(C)n1 [2a]	NR	NR	
COc1ccnc(SC)n1 [2b]	NR	NR	
CSc1nccc(C)n1 [2c]	NR	NR	
CSc1nccc(C(=O)O)n1 [2d]	NR	NR	
CSc1nccc(-c2ccccc2)n1 [2e]	NR	NR	
COc1cc(OC)nc(SC)n1 [2f]	NR	NR	
CSc1nccc(N)n1 [2g]	NR	NR	
CSc1ncc(Cl)c(C(=O)O)n1 [2h]	NR	NR	
CSc1ncc(Br)c(C(=O)O)n1 [2i]	NR	NR	
CSc1nccc(C(N)=O)n1 [2j]	NR	NR	
COC(=O)c1ccnc(SC)n1 [2k]	NR	NR	
CSc1nccc(C(F)(F)F)n1 [2l]	NR	NR	
CSc1ncc([N+](=O)[O-])cn1 [2m]	NR	NR	
COc1cnc(SC)nc1 [2n]	NR	NR	
CSc1ncc(C)cn1 [2o]	NR	NR	
CSc1ncccn1 [2q]	NR	NR	k: NR
CSc1ncc(F)cn1 [2r]	NR	NR	

SMILES	rate constant (k) for the reaction with GSH [1]	rate constant (k) for the reaction with GSH [2]	also measured
CSc1ncc(Cl)cn1 [2s]	NR	NR	
CSc1ncc(Br)cn1 [2t]	NR	NR	
CSc1ncc(C(F)(F)F)cn1 [2x]	NR	NR	
COC(=O)c1cnc(SC)nc1 [2y]	NR	Ca. 0.020 mM-1.s-1	
CC(C)(C)Sc1ncccn1 [3a]		NR	
CCCCSc1ncccn1 [3c]		NR	
c1ccc(Sc2ncccn2)cc1 [3d]		NR	
CS(=O)(=O)c1ncc(Cl)c(C(=O)O)n1 [4h]			k change (vs ref) (pH 7.0): +7 fold
CS(=O)(=O)c1ncc(F)cn1 [4r]	Multiple	Multiple	
CS(=O)(=O)c1nc2ccc([N+](=O)[O-])cc2s1 [compound 10, 2-(methylsulfonyl)-6-nitrobenzo[d]thiazole, reference compound]			rate constant (k) for the reaction with GSH (pH 6.5, measured by UV titrations): 290 ± 130 M⁻¹ s⁻¹; second order rate constant k with GSH (pH 7.0, KPi buffer): ≈ 1200 M^–1 s^–1; k change (vs ref) (pH 7.0): +44,000 fold
Fc1ncccn1 [compound 13, reference compound]		NR	k: NR
Brc1ncccn1 [compound 14, reference compound]			k: NR
Oc1ncccn1 [compound 16, reference compound]		NR	
Nc1ncccn1 [compound 17, reference compound]		NR	
CS(=O)(=O)c1cnccn1 [compound 18]	NR	NR	reactivity with GSH (in words) (KPi buffer): completely switched off reactivity
O=C1C=CC(=O)N1Cc1ccccc1 [compound 21, N-benzylmaleimide, reference compound]		Multiple products	reactivity with GSH (in words) (KPi buffer): heterogeneous mixture of succinimidyl products; second order rate constant k with GSH (pH 7.0, KPi buffer): > 0.5 M^–1 s^–1
C=CC(=O)Nc1ccccc1 [compound 22, reference compound]		NR	reactivity with GSH (in words) (KPi buffer): none
OB1OCc2ccccc21 [compound 23, reference compound]			rate constant (k) for the reaction with GSH (pH 7): NR
